We go through 22 molecules from patent publication US20230203058A1, “MACROCYCLIC DIAMINE DERIVATIVES AS ENT INHIBITORS FOR THE TREATMENT OF CANCERS, AND COMBINATION THEREOF WITH ADENOSINE RECEPTOR ANTAGONISTS” (ITEOS BELGIUM SA, priority 2020, published 2023).

A word on the IC50: it is the point on the concentration scale where inhibition reaches its midpoint. The low end stands for inhibition by little substance, the high end for a need for much substance.

This experiment has as its target T1, human ENT1 (Homo sapiens, UniProt Q99808).
T1 sequence (Q99808 1-456): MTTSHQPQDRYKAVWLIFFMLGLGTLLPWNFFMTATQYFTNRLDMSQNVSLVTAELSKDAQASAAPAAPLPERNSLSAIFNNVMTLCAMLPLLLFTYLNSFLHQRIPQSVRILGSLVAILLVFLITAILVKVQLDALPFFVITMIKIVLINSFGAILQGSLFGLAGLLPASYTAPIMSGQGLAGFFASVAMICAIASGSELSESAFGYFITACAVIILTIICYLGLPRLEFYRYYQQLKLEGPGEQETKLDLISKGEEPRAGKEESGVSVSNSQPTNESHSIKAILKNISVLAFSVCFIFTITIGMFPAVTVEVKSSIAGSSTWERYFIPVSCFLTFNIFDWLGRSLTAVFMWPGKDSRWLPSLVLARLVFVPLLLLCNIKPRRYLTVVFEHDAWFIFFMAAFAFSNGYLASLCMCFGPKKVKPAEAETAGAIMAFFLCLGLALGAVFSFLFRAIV
Briefly: ENT1 binding assay (competition with Sahenta-DY647 on JAR cells). The arrangement: JAR cells expressing ENT1 were bought from ATCC® (HTB-144TM); host or cells: JAR cells (human choriocarcinoma line; whole cells). The settings on record: competition with Sahenta-DY647 100 nM, 4° C. The method, then: The present assay aims at showing that the compounds of the present invention can bind to human ENT1. The principle of the assay is a competition between the compounds of this invention and Sahenta-DY647, an ENT1 inhibitor that emits fluorescence (Ex = 630 nm, Em = 670 nm). By measuring the fluorescence at the end of the assay we could assess the binding potency of the compounds of the present invention.
JAR cells expressing ENT1 were bought from ATCC® (HTB-144TM). Cells were cultured in RPMI 1640 medium (LONZA®, #BE12-702F/U1) supplemented with 10% FBS (GIBCO®, #10270-106), 10 mM Hepes (LONZA®, #BE17-737E), 1 mM Sodium Pyruvate (LONZA®, #BE13-115E) and 2% Penicillin/Streptomycin (LONZA®, #DE17-603E) at 37° C. and 5% CO2. The assay was conducted on the following buffer: HBSS (LONZA®, #LO-527F) supplemented with 10 mM Hepes (LONZA®, #BE17-737E) and 0.1% BSA (Miltenyi®, #130-091-376) on the day of the assay. JAR cells were resuspended in the described buffer. Compounds of the present invention and Sahenta-DY647 were diluted 200X in the described buffer.
A total of 50000 cells were pre-incubated for 30 min at 4° C. with the compounds of the present invention before adding the corresponded IC90 of Sahenta-DY647 (100 nM) and incubate once more for 30 min at 4° C. The total volume of the reaction was 100 µL (50 µL of cells, 25 µL of the compounds of the present invention and 25 µL of Sahenta-DY647) in a 96 well plate, U-bottom (Greiner®, #650-180). The plates were washed 2X by centrifugation (4 min, 400 rcf at 4° C.) in the same buffer. Cells were resuspended in 70 µL of the buffer and 50 µL was transferred to a Black 384 Optiplate (PerkinElmer®, #6007279). Fluorescence (Ex = 630 nm, Em = 670 nm) was acquired on a Spectramax i3x (Molecular Devices®).
The molecule `COc1cc2cc(c1OC)OCCCC(OC(=O)C1CCC(OC)CC1)CCN1CCCN(CCCOC2=O)CC1` (stereo not shown) [Compound 70, 74,75-dimethoxy-6-oxo-5,8-dioxa-1(1,4)-diazepana-7(1,3)-benzenacyclotetradecaphane-12-yl 4-methoxycyclohexane-1-carboxylate] came in with an IC50 of 1 to 20 nM. Turning to `COc1cc2cc(c1OC)OCCCC(OC(=O)c1c(F)cccc1F)CCN1CCCN(CCCOC2=O)CC1` (stereo not shown) [Compound 71, 74,75-dimethoxy-6-oxo-5,8-dioxa-1(1,4)-diazepana-7(1,3)-benzenacyclotetradecaphane-12-yl 2,6-difluorobenzoate], the IC50 was 1 to 20 nM. `COc1cc2cc(c1OC)OCCCC(OC(=O)c1cccc(C#N)c1)CCN1CCCN(CCCOC2=O)CC1` (stereo not shown) [Compound 73, 74,75-dimethoxy-6-oxo-5,8-dioxa-1(1,4)-diazepana-7(1,3)-benzenacyclotetradecaphane-12-yl 3-cyanobenzoate] came in with a concentration for half-maximal inhibition (IC50) of 1 to 20 nM. Under `COc1cc2cc(c1OC)OCCCC(OC(=O)c1ccc3c(c1)CCC(=O)N3)CCN1CCCN(CCCOC2=O)CC1` (stereo not shown) [Compound 74, 74,75-dimethoxy-6-oxo-5,8-dioxa-1(1,4)-diazepana-7(1,3)-benzenacyclotetradecaphane-12-yl 2-oxo-1,2,3,4-tetrahydroquinoline-6-carboxylate] stands 1 to 20 nM; under `COc1cc2cc(c1OC)OCCCC(OC(=O)c1cccc(OC(F)F)c1)CCN1CCCN(CCCOC2=O)CC1` (stereo not shown) [Compound 75, 74,75-dimethoxy-6-oxo-5,8-dioxa-1(1,4)-diazepana-7(1,3)-benzenacyclotetradecaphane-12-yl 3-(difluoromethoxy)benzoate], 20 to 500 nM. Regarding `COc1cc2cc(c1OC)OCCCC(OC(=O)c1cc(Cl)cc(Cl)c1)CCN1CCCN(CCCOC2=O)CC1` (stereo not shown) [Compound 76, 74,75-dimethoxy-6-oxo-5,8-dioxa-1(1,4)-diazepana-7(1,3)-benzenacyclotetradecaphane-12-yl 3,5-dichlorobenzoate], the IC50 is 20 to 500 nM.

As to `COc1cc2cc(c1OC)OCCCC(OC(=O)c1cccc(Cl)c1Cl)CCN1CCCN(CCCOC2=O)CC1` (stereo not shown) [Compound 78, 74,75-dimethoxy-6-oxo-5,8-dioxa-1(1,4)-diazepana-7(1,3)-benzenacyclotetradecaphane-12-yl 2,3-dichlorobenzoate], the IC50 lay in the range of 1 to 20 nM. `COc1cc2cc(c1OC)OCCCC(OC(=O)c1c(F)ccc(C)c1Cl)CCN1CCCN(CCCOC2=O)CC1` (stereo not shown) [Compound 79, 74,75-dimethoxy-6-oxo-5,8-dioxa-1(1,4)-diazepana-7(1,3)-benzenacyclotetradecaphane-12-yl 2-chloro-6-fluoro-3-methylbenzoate] came in with an IC50 of 1 to 20 nM. `COc1cc2cc(c1OC)OCCCC(OC(=O)c1ccc(F)c(C(F)(F)F)c1)CCN1CCCN(CCCOC2=O)CC1` (stereo not shown) [Compound 81, 74,75-dimethoxy-6-oxo-5,8-dioxa-1(1,4)-diazepana-7(1,3)-benzenacyclotetradecaphane-12-yl 4-fluoro-3-(trifluoromethyl)benzoate] gave an IC50 of 1 to 20 nM. Turning to `COc1cc2cc(c1OC)OCCCC(OC(=O)c1ccc(C#N)c(F)c1)CCN1CCCN(CCCOC2=O)CC1` (stereo not shown) [Compound 82, 74,75-dimethoxy-6-oxo-5,8-dioxa-1(1,4)-diazepana-7(1,3)-benzenacyclotetradecaphane-12-yl 4-cyano-3-fluorobenzoate], the IC50 is 1 to 20 nM. The molecule `COc1cc2cc(c1OC)OCCCC(OC(=O)c1ccc(C(F)(F)F)cc1)CCN1CCCN(CCCOC2=O)CC1` (stereo not shown) [Compound 83, 74,75-dimethoxy-6-oxo-5,8-dioxa-1(1,4)-diazepana-7(1,3)-benzenacyclotetradecaphane-12-yl 4-(trifluoromethyl)benzoate] had an IC50 of 1 to 20 nM. As to `COc1cc2cc(c1OC)OCCCC(OC(=O)c1cc(F)cc(F)c1)CCN1CCCN(CCCOC2=O)CC1` (stereo not shown) [Compound 84, 74,75-dimethoxy-6-oxo-5,8-dioxa-1(1,4)-diazepana-7(1,3)-benzenacyclotetradecaphane-12-yl 3,5-difluorobenzoate], the IC50 is 1 to 20 nM. The value for `COc1cc2cc(c1OC)OCCCC(OC(=O)c1ccc(F)c(F)c1)CCN1CCCN(CCCOC2=O)CC1` (stereo not shown) [Compound 85, 74,75-dimethoxy-6-oxo-5,8-dioxa-1(1,4)-diazepana-7(1,3)-benzenacyclotetradecaphane-12-yl 3,4-difluorobenzoate] was 1 to 20 nM.

In turn, `COc1cc2cc(c1OC)OCCCC(OC(=O)c1ccc(F)c(C#N)c1)CCN1CCCN(CCCOC2=O)CC1` (stereo not shown) [Compound 86, 74,75-dimethoxy-6-oxo-5,8-dioxa-1(1,4)-diazepana-7(1,3)-benzenacyclotetradecaphane-12-yl 3-cyano-4-fluorobenzoate] yielded an IC50 of 1 to 20 nM. The value for `COc1cc2cc(c1OC)OCCCC(OC(=O)c1ccc(C#N)cc1)CCN1CCCN(CCCOC2=O)CC1` (stereo not shown) [Compound 87, 74,75-dimethoxy-6-oxo-5,8-dioxa-1(1,4)-diazepana-7(1,3)-benzenacyclotetradecaphane-12-yl 4-cyanobenzoate] was 1 to 20 nM; that for `COc1cc2cc(c1OC)OCCCC(OC(=O)c1ccc3c(c1)ncn3C)CCN1CCCN(CCCOC2=O)CC1` (stereo not shown) [Compound 89, 74,75-dimethoxy-6-oxo-5,8-dioxa-1(1,4)-diazepana-7(1,3)-benzenacyclotetradecaphane-12-yl 1-methyl-1 H-benzo [d] imidazole-5-carboxylate] was 1 to 20 nM; that for `COc1cc2cc(c1OC)OCCCC(OC(=O)c1ccc(-c3cnco3)cc1)CCN1CCCN(CCCOC2=O)CC1` (stereo not shown) [Compound 90, 74,75-dimethoxy-6-oxo-5,8-dioxa-1(1,4)-diazepana-7(1,3)-benzenacyclotetradecaphane-12-yl 4-(oxazol-5-yl)benzoate] was 1 to 20 nM. In turn, `COc1cc2cc(c1OC)OCCCC(OC(=O)c1cc(Cl)c(Cl)cc1F)CCN1CCCN(CCCOC2=O)CC1` (stereo not shown) [Compound 91, 74,75-dimethoxy-6-oxo-5,8-dioxa-1(1,4)-diazepana-7(1,3)-benzenacyclotetradecaphane-12-yl 4,5-dichloro-2-fluorobenzoate] had an IC50 of 1 to 20 nM. For the molecule `CCOc1cc(C(=O)OC2CCCOc3cc(cc(OC)c3OC)C(=O)OCCCN3CCCN(CC2)CC3)cc(OCC)c1OCC` (stereo not shown) [Compound 92, 74,75-dimethoxy-6-oxo-5,8-dioxa-1(1,4)-diazepana-7(1,3)-benzenacyclotetradecaphane-12-yl 3,4,5-triethoxybenzoate], the IC50 lay in the range of 1 to 20 nM. In turn, `COc1cc2cc(c1OC)OCCCC(OC(=O)CCC#N)CCN1CCCN(CCCOC2=O)CC1` (stereo not shown) [Compound 95, 74,75-dimethoxy-6-oxo-5,8-dioxa-1(1,4)-diazepana-7(1,3)-benzenacyclotetradecaphane-12-yl 3-cyanopropanoate] displayed an IC50 of 1 to 20 nM. `COc1cc2cc(c1OC)OCCCC(OC(=O)CCn1cnnn1)CCN1CCCN(CCCOC2=O)CC1` (stereo not shown) [Compound 98, 74,75-dimethoxy-6-oxo-5,8-dioxa-1(1,4)-diazepana-7(1,3)-benzenacyclotetradecaphane-12-yl 3-(1 H-tetrazol-1-yl)propanoate] gave an IC50 of 1 to 20 nM. Under `CNC(=O)CCC(=O)OC1CCCOc2cc(cc(OC)c2OC)C(=O)OCCCN2CCCN(CC1)CC2` (stereo not shown) [Compound 101, 74,75-dimethoxy-6-oxo-5,8-dioxa-1(1,4)-diazepana-7(1,3)-benzenacyclotetradecaphane-12-yl 4-(methylamino)-4-oxobutanoate] stands 1 to 20 nM.
